Earlier results on one molecule are cited in patent publication US6706282B1, “Controlled delivery of phenoxyethyl-substituted 1,2,4-triazolones” (priority 1998, dated 2004).

Structures are written as SMILES. Where a name gives a salt, the structure may show the parent alone.

On to `CCc1nn(CCCN2CCN(c3cccc(Cl)c3)CC2)c(=O)n1CCOc1ccccc1` [nefazodone hydrochloride, 2-[3-[4-(3-chlorophenyl)-piperazinyl]propyl]-5-ethyl-4-(2-phenoxyethyl)-2H-1,2,4-triazol-3(4H)-one hydrochloride], for which, where the note is “conventional immediate release formulations”, the “time of peak plasma concentrations after dosing” value is on record as “about one”. For the same molecule, the half-life (in vivo) is 2 to 4 h.

The term half-life denotes how long it takes for the measured level to halve.
